Tests used:
AKT3 = AKT3 (Homo sapiens, UniProt Q9Y243); experiment: Z'-Lyte kinase panel, AKT3; assay type: biochemical; settings: 1.5 hrs incubation
Description: (§1) Kinase activity assays were performed using the FRET-based Z′-Lyte assay according to the manufacturer’s instructions. The compounds were incubated with the kinase reaction mixture for 1.5 hrs before measurement. The data are means from two independent experiments and the variations are below 20%.

AKT1 = AKT1 (Homo sapiens, UniProt P31749); experiment: Z'-Lyte kinase panel, AKT1; assay type: biochemical; settings: 1.5 hrs incubation
Description: as §1

[1] = system: H1975 (EGFR^L858R/T790M) cells; experiment: CCK-8 cell growth assay, H1975; assay type: cell-based; settings: Homo sapiens, NCI-H1975; CCK-8, 72 h; AV ± SD; read-out: antiproliferative IC50 H1975
Description: (§2) Cells were seeded into 96‐well plates at a density of 1500~3000/well in complete medium overnight. Then, cells were treated with various concentrations (0.01~1000 nmol/L) of YL143 for additional 3 days. Viable cell numbers were determined by Cell Counting Kit 8 (CCK8, CK04, Dojindo Laboratories, Japan). Each assay consisted of three replicate wells and repeated at least three times. […] Each IC50 value was expressed as mean ± SD.

[2] = Pharmacokinetic study in SD rats; assay type: in vivo, rat
Description: Sprague Dawley (SD) rats (180–220 g) were fasted overnight before drug administration. They could eat food and drink water freely during the study. Rats were grouped and treated with 25 and 5 mg/kg of YL143 in vehicle via oral gavage and i.v., respectively. Eyeground vein blood samples (0.20 mL) were collected from each animal at designed time point postdose (5, 30 min, 1, 2, 4, 8, 12, 24, 36, 48, 60, and 72 h.). Blood samples were centrifuged within 10 min at 900 g, and then, plasma was separated and stored at 4°C until analysis. Drug concentration was quantitatively detected using an API 300 mass spectrometer (Applied Biosystems, Canada) with TurboIonSpray source interface. Data acquisition and quantitation were performed using Analyst 1.4 (Applied Biosystems, Canada). All pharmacokinetic parameters were calculated by DAS 2.0 using a noncompartment model (Clinical drug research center of Shanghai University of Traditional Chinese Medicine, Shanghai, China).

FLT3 = FLT3 (Homo sapiens, UniProt P36888); experiment: Z'-Lyte kinase panel, FLT3; assay type: biochemical; settings: 1.5 hrs incubation
Description: as §1

Kit = Kit (Homo sapiens, UniProt P10721); experiment: Z'-Lyte kinase panel, Kit; assay type: biochemical; settings: 1.5 hrs incubation
Description: as §1

AKT2 = AKT2 (Homo sapiens, UniProt P31751); experiment: Z'-Lyte kinase panel, AKT2; assay type: biochemical; settings: 1.5 hrs incubation
Description: as §1

A431 (EGFR^WT) cells = experiment: CCK-8 cell growth assay, A431; assay type: cell-based; settings: Homo sapiens, A-431; CCK-8, 72 h; read-out: antiproliferative IC50 A431
Description: as §2

IR = IR (Homo sapiens, UniProt P06213); experiment: FRET-based Z'-Lyte kinase assay, IR; assay type: biochemical; settings: AV ± SD; 1.5 h incubation
Description: (§3) The kinase activity assay was performed and optimized according to the instructions of Z’‐LYTE™ kinase assay kits from the manufacturer (PV4879, Life, America). In our experiments, 10 concentration gradients from 0.01 nmol/L to 1.0 μmol/L were used for all the compounds.

EGFR^L858R = molecular target: T1, EGFR^L858R (Homo sapiens, UniProt P00533, L858R); experiment: FRET-based Z'-Lyte kinase assay, EGFR L858R; assay type: biochemical; settings: AV ± SD; 1.5 h incubation
T1 construct: purchased Invitrogen
Description: as §3

CSF1R = CSF1R (Homo sapiens, UniProt P07333); experiment: Z'-Lyte kinase panel, CSF1R; assay type: biochemical; settings: 1.5 hrs incubation
Description: as §1

EGFR^L858R/T790M = EGFR^L858R/T790M (Homo sapiens, UniProt P00533, L858R/T790M); experiment: Compound washout assay on H1975 cells (Western blot); assay type: cell-based; settings: 100 nmol/L for 4 h, then washout, 24 h
Description: Cells were treated with various concentrations of compound for designed time. Then, cells were lysed using 1 × SDS sample lysis buffer (CST recommended) with protease and phosphatase inhibitors. Cell lysates were loaded and electrophoresed onto 8–12% SDS‐PAGE gel, and then, separated proteins were transferred to a PVDF film. The film was blocked with 5% fat‐free milk in TBS solution containing 0.5% Tween‐20 for 4 h at room temperature and then incubated with corresponding primary antibody (1:1000–1:200) overnight at 4°C. After washing with TBST, HRP‐conjugated secondary antibody was incubated for 2 h. And the protein signals were visualized by ECL Western Blotting Detection Kit (Thermo Scientific, Waltham, MA) and detected with Amersham Imager 600 system (GE, America).
Cells were treated with or without compound YL143 for 4 h at indicated concentration, respectively. Cells were harvested for Western blot analysis. […] NCI‐H1975 cells were treated with or without compound YL143(100 nmol/L) for 4 h, and then the medium with compound was removed and fresh medium was added. At the indicated time points, cells were harvest and proteins were extracted and subjected to Western blot analysis.

[3] = Sprague-Dawley, rat, plasma, iv, I.V. 5 mg/Kg
[4] = Sprague-Dawley, rat, plasma, po, P.O. 25 mg/Kg

Chain of IR (P06213 28-1382): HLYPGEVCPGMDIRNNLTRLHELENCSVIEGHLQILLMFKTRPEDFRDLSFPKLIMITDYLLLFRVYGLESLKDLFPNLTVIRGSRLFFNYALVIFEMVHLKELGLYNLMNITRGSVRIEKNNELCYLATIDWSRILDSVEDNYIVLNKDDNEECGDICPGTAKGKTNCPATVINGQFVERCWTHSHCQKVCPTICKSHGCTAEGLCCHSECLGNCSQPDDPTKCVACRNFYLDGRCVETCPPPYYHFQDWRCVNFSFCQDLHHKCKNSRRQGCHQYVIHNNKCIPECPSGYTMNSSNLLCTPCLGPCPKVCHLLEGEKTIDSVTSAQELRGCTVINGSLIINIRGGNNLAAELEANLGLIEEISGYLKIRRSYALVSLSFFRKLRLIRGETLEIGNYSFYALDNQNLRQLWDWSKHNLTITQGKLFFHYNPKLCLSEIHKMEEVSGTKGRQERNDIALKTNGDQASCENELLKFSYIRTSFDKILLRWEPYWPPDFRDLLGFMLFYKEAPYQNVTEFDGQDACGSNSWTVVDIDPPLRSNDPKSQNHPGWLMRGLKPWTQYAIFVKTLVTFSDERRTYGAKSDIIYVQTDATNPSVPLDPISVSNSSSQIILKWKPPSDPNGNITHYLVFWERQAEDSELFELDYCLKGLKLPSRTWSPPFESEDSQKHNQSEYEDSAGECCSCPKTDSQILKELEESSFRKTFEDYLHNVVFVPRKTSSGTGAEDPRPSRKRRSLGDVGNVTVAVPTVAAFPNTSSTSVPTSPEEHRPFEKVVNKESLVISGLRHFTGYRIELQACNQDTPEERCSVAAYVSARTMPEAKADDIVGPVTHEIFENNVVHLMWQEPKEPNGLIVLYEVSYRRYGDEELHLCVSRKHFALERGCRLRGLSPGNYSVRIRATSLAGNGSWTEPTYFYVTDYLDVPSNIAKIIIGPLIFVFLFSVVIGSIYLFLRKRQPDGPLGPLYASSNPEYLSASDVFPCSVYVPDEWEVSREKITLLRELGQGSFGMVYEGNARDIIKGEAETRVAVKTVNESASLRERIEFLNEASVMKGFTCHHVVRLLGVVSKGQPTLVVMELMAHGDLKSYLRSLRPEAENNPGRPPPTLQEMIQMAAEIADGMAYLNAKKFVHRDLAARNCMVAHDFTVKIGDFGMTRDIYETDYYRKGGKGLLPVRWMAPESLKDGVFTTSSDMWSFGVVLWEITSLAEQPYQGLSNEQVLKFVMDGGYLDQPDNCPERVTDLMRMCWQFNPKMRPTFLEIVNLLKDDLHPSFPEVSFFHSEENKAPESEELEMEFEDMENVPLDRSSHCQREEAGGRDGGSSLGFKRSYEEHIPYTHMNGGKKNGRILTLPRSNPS
Chain of AKT3 (Q9Y243 whole entry, species assumed): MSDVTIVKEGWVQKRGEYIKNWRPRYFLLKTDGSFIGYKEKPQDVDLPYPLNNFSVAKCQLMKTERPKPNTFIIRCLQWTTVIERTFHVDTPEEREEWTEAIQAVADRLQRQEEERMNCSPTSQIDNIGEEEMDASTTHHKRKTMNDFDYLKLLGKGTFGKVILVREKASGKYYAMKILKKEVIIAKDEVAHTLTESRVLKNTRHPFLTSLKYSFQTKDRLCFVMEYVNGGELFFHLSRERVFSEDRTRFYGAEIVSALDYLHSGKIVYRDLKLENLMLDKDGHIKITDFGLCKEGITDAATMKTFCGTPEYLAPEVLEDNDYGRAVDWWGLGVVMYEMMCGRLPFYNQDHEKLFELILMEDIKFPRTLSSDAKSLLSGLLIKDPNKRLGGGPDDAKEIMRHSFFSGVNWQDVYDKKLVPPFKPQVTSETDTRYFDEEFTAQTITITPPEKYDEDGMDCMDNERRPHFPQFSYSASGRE
Chain of AKT2 (P31751 whole entry, species assumed): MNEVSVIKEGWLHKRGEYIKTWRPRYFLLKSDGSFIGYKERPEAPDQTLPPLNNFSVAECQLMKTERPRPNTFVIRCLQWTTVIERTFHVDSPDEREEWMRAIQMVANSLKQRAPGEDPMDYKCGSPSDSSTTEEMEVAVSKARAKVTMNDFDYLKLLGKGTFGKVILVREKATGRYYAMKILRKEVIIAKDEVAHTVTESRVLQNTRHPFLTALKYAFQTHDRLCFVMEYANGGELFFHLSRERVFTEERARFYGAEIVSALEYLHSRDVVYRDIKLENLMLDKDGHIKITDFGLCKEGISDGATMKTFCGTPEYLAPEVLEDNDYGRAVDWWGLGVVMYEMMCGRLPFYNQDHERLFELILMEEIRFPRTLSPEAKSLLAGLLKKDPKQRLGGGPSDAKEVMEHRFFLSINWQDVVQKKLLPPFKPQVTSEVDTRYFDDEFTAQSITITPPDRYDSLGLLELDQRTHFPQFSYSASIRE
Chain of AKT1 (P31749 whole entry, species assumed): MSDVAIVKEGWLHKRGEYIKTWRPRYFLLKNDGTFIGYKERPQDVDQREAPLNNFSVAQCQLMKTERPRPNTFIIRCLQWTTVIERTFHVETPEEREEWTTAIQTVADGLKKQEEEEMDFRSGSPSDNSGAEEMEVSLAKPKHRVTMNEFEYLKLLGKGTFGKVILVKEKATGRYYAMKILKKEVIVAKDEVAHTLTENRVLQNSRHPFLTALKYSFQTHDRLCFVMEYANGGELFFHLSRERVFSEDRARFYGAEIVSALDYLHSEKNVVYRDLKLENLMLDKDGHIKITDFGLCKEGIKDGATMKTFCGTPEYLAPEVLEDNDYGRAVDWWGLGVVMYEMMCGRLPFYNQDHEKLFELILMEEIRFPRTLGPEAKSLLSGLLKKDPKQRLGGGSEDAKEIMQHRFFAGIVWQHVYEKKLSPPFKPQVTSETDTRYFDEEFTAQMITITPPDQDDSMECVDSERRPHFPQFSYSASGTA
Chain of CSF1R (P07333 20-972, species assumed): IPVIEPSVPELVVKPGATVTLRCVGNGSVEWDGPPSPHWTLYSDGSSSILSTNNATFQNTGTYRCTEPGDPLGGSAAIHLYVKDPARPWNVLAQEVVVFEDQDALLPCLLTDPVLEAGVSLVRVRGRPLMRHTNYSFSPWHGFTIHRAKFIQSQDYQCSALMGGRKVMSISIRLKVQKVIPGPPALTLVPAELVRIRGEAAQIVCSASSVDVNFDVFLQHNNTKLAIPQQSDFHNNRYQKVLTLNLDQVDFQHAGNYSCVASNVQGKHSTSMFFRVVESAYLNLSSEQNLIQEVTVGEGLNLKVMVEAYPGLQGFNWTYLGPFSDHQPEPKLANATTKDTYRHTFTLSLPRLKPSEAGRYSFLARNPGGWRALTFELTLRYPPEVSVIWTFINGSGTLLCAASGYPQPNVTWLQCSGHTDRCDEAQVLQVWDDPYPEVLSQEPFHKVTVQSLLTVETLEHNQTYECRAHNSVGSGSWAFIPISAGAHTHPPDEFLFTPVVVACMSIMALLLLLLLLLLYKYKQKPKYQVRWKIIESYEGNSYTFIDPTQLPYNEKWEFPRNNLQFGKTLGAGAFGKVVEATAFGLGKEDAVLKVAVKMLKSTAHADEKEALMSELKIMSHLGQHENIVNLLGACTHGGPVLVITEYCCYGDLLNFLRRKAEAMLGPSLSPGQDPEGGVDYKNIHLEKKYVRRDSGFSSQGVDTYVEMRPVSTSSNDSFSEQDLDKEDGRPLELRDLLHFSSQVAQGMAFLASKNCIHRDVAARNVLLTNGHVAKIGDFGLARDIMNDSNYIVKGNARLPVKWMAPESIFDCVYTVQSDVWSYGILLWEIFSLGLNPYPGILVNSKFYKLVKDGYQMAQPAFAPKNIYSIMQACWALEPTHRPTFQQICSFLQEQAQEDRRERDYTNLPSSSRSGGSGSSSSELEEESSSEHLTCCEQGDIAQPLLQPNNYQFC
Chain of FLT3 (P36888 27-993, species assumed): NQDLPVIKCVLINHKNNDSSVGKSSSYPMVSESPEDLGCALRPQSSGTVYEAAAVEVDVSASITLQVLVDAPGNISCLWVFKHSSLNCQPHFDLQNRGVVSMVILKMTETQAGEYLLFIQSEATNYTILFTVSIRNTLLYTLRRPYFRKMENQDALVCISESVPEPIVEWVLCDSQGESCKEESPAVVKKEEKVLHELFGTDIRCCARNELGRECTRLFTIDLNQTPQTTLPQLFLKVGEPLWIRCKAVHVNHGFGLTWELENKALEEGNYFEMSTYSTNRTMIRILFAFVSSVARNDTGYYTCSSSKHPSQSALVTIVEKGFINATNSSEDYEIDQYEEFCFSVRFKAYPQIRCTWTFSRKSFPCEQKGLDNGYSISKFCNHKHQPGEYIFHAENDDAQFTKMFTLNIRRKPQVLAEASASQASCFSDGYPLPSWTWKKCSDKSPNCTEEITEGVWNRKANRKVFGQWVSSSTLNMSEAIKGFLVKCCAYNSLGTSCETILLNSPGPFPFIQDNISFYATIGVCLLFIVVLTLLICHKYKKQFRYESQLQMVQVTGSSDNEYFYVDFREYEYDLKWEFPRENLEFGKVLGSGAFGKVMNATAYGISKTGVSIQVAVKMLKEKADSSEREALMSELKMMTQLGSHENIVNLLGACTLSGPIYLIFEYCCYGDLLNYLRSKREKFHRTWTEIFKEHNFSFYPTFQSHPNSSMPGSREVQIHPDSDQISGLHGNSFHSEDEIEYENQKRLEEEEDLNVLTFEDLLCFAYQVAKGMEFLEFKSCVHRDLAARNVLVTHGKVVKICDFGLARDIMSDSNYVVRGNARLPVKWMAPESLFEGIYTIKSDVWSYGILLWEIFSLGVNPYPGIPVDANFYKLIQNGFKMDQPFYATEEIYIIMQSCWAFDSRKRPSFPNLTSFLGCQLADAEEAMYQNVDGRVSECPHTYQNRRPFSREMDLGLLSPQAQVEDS

With `C=CC(=O)Nc1cc(C)cc(-n2c(=O)cc(C)c3cnc(Nc4ccc(N5CCN(C)CC5)cc4OC)nc32)c1` [YL143, N‐(3‐(2‐((2‐Methoxy‐4‐(4‐methylpiperazin‐1‐yl)phenyl)amino)‐5‐methyl‐7‐oxopyrido [2,3‐d]pyrimidin‐8(7H)‐yl)‐5‐methylphenyl)acrylamide] the IC50 (AKT3) was > 10000 nM, the IC50 (AKT1) was > 10000 nM and the IC50 [1] was 45.2 ± 27.3 nM. For the same compound, the “BA (oral bioavailability)” value ([2]; P.O. 25 mg/Kg vs I.V. 5 mg/Kg) was 24.95%, the T1/2 ([2]; P.O. 25 mg/Kg, 25 mg/kg) was 6.13 h and the half-life ([2]; Sprague-Dawley, rat, plasma, iv, 5 mg/kg, I.V. 5 mg/Kg) was 1.36 h. It also gave an AUC(0-inf) [2, 3] of 1880 ng·h/mL, a Cmax [2, 3] of 3270 ng/mL and a Tmax [2, 3] of 0.08 h. It also gave a bioavailability ([2]; Sprague-Dawley, rat, plasma, oral, 25 mg/kg, P.O. 25 mg/Kg vs I.V. 5 mg/Kg, read-out: BA (oral bioavailability)) of 25%, a half-life ([2]; Sprague-Dawley, rat, plasma, po, 25 mg/kg, P.O. 25 mg/Kg) of 6.1 h and an AUC(0-inf) [2, 4] of 2340 ng·h/mL. It also gave a Cmax [2, 4] of 160 ng/mL, a Tmax [2, 4] of 6.67 h and a Cmax ([2]; Sprague-Dawley, rat, plasma, single oral dosing 25 mg/kg) of 297 nM. For the same compound, the IC50 (FLT3) was > 10000 nM, the IC50 (Kit) was > 10000 nM and the IC50 (AKT2) was > 10000 nM. For the same compound, the IC50 (A431 (EGFR^WT) cells) was > 1000 nM, the IC50 (IR) was 7.5 ± 0.1 nM and the IC50 (EGFR^L858R) was 49.1 ± 4.2 nM. The IC50 (CSF1R) was > 10000 nM and the “EGFR^L858R/T790M phosphorylation recovery after withdrawal” value (EGFR^L858R/T790M) was “no EGFR^L858R/T790M phosphorylation recovery was observed”.
